Measurements: patent publication US11725000B2, “Apoptosis inhibitors” (National Institute of Biological Sciences, Beijing, priority 2017, dated 2023)

Each molecule was assayed on U2OS_Bim cells (assay: Apoptosis inhibition assay (Bim-induced apoptosis, cell viability by ATP level)). Conditions: U2OS_Bim cells; estimated (*Est.) / preliminary results; numbering of Tables 4a/4b; read-out: EC50.
Assay type: cell-based
Experimental: A chemical library containing 200000 compounds was screened according to the following procedure: U2OS_Bim cells (a cell line in which the BH3-only protein Bim can be inducibly expressed by the addition of Doxycycline to the growth medium)^[2] were plated in 384-well plates with 30 μl medium at a density of 500 cells per well. 16 hrs after plating, test compounds were transferred from stock plates to the assay plates with the cultured cells. Positive control (20 μM zVAD) and negative control (DMSO) were added to every plate. 1 hr after compound treatment, 0.1 ug/mL Doxycyclin (DOX) was added to induce the expression of the Bim protein. After 24 hrs, cell viability was determined by measuring the ATP levels using a Cell Titer-Glo kit (Promega, G7570) according to the manufacturer's instructions. Luminescence was recorded with a PerkinElmer EnSpire Multimode Plate Reader. Compounds that could rescue cell viability to a level above 50% were selected; these compounds were then screened a second time for assurance.
U2OS_Bim or U2OS_tBid cells were plated at a density of 3000 cells per well in 96-well plates. 24 hrs later, cells were treated with experimental compounds, zVAD (positive control) and DMSO (Negative control) for one hour. The cells were then treated with 0.1 μg/mL DOX to trigger apoptosis. 24 hours after the addition of DOX, cell viability was determined by measuring the ATP levels using a Cell Titer-Glo kit. Cell survival rate was calculated.
U2OS_Bim cells (a U2OS stable cell line transfected with a Bim transgene) were cultured in DMEM culture medium (Gibico). On day one, U2OS_Bim cells were plated in 96-well plates at a density of 3000 cells per well. On day two, cells were pretreated with compounds for one hour. Then cells were treated with 0.1 μg/mL doxycycline (DOX) to trigger apoptosis. 24 hours after DOX treatment, cell viability was determined by measuring the ATP levels using the Cell Titer-Glo kit (G7570, Promega), according to the manufacturer's instructions. Luminescence was recorded with a PerkinElmer EnSpire Multimode Plate Reader. Survived cells were normalized to those cells treated with DMSO. zVAD (20 μM) was used as a positive control. Activity data for compounds […] are represented as means f standard deviation of duplicates; activity data for compounds 187-274 are estimated based on preliminary results.

Q: `Cc1cc(-c2cc(F)c(=O)n(Cc3ccc4c(c3)OCO4)c2)nc(S(=O)(=O)CCC(OCc2ccccc2F)C2CCCOC2)n1` (stereo not shown) [Compound 399] was tested. Which EC50 did it give?
A: 1 to 1000 nM

Q: `Cc1cc(-c2cc(F)c(=O)n(Cc3ccn4ccnc4c3)c2)nc(S(=O)(=O)CCC(OCc2ccccc2F)c2ccccc2)n1` (stereo not shown) [Compound 340] was tested. Which EC50 did it give?
A: 1 to 1000 nM

Q: Which EC50 does the source give for `Cc1cc(-c2cc(F)c(=O)n(Cc3ccc4c(c3)OCO4)c2)nc(S(=O)(=O)CCC(OCC2CCC2)c2ccccc2)n1` (stereo not shown) [Compound 415] here?
A: 1 to 1000 nM

Q: For `Cc1cc(-c2cc(F)c(=O)n(Cc3ccc4c(c3)N(C)CO4)c2)nc(S(=O)(=O)CCC(OCc2ccccc2F)c2ccccc2)n1` (stereo not shown) [Compound 354], which EC50 is on record?
A: 1 to 1000 nM

Q: Which EC50 does the source give for `Cc1cc(-c2cc(F)c(=O)n(Cc3ccc4c(c3)OCN4C)c2)nc(S(=O)(=O)CCC(OCc2ccccc2F)c2ccccc2)n1` (stereo not shown) [Compound 353] here?
A: 1 to 1000 nM

Same assay, conditions: U2OS_Bim cells; estimated based on preliminary results; numbering of Tables 4a/4b; read-out: EC50

Q: Which EC50 does the source give for `COc1ccc(Cn2cc(-c3cc(C(F)F)nc(S(=O)(=O)CCCO)n3)ccc2=O)cc1OC` [Compound 273, 5-(6-(difluoromethyl)-2-((3-hydroxypropyl)sulfonyl)pyrimidin-4-yl)-1-(3,4-dimethoxybenzyl)pyridin-2 (1H)-one] here?
A: 1000 to 10000 nM

Q: For `COc1ccc(Cn2cc(-c3cc(C(F)F)nc([S+](C)[O-])n3)ccc2=O)cc1OC` (stereo not shown) [Compound 202, 5-(6-(difluoromethyl)-2-(methylsulfinyl)pyrimidin-4-yl)-1-(3,4-dimethoxybenzyl)pyridin-2 (1H)-one], which EC50 is on record?
A: < 10000 nM

Q: For `CS(=O)(=O)c1nc(-c2ccc(=O)n(Cc3ccc4ccncc4c3)c2)cc(C(F)(F)F)n1` [Compound 250], which EC50 is on record?
A: < 10000 nM

Q: `CNc1cc(Cn2cc(-c3cc(C(F)(F)F)nc([S+](C)[O-])n3)ccc2=O)ccc1OC` (stereo not shown) [Compound 239] was tested. Which EC50 did it give?
A: < 10000 nM

Q: `C[S+]([O-])c1nc(-c2ccc(=O)n(Cc3ccc4c(c3)OCCN4)c2)cc(C(F)(F)F)n1` (stereo not shown) [Compound 241] was tested. Which EC50 did it give?
A: < 10000 nM

Q: How did the EC50 turn out when `COc1ccc(Cn2cc(-c3cc(-n4cccn4)nc([S+](C)[O-])n3)ccc2=O)cc1OC` (stereo not shown) [Compound 220] was run?
A: < 10000 nM

Q: With `COc1ccc(Cn2cc(-c3cc(-c4ccco4)nc([S+](C)[O-])n3)ccc2=O)cc1OC` (stereo not shown) [Compound 207] as the molecule, how does the EC50 read?
A: < 10000 nM

Q: For `COc1ccc(Cn2cc(-c3cc(C(F)(F)F)nc(S(=O)(=O)CN4CCCCC4)n3)ccc2=O)cc1OC` [Compound 196], which EC50 is on record?
A: < 10000 nM

Q: For `COc1ccc(Cn2cc(-c3cc(-c4ncco4)nc(S(C)(=O)=O)n3)ccc2=O)cc1OC` [Compound 211], which EC50 is on record?
A: < 10000 nM

Q: Which EC50 does the source give for `CCC(F)(F)c1cc(-c2ccc(=O)n(Cc3ccc(OC)c(OC)c3)c2)nc(S(C)(=O)=O)n1` [Compound 270, 5-(6-(1,1-difluoropropyl)-2-(methylsulfonyl)pyrimidin-4-yl)-1-(3,4-dimethoxybenzyl)pyridin-2 (1H)-one] here?
A: < 10000 nM

Q: With `COc1ccc(Cn2cc(-c3cc(-n4ccnc4)nc([S+](C)[O-])n3)ccc2=O)cc1OC` (stereo not shown) [Compound 221] as the molecule, how does the EC50 read?
A: < 10000 nM

Q: For `COc1ccc(Cn2cc(-c3cc(-c4cnco4)nc([S+](C)[O-])n3)ccc2=O)cc1OC` (stereo not shown) [Compound 214], which EC50 is on record?
A: < 10000 nM

Q: `COc1ccc(Cn2cc(-c3cc(-c4ncco4)nc([S+](C)[O-])n3)ccc2=O)cc1OC` (stereo not shown) [Compound 210] was tested. Which EC50 did it give?
A: < 10000 nM

Same assay, conditions: U2OS_Bim cells; means of duplicates; numbering of Tables 4a/4b; read-out: EC50

Q: For `COc1cccc(Cn2ccc(-c3cc(C(F)(F)F)nc([S+](C)[O-])n3)c2)c1` (stereo not shown) [Compound 90, 4-(1-(3-methoxybenzyl)-1H-pyrrol-3-yl)-2-(methylsulfinyl)-6-(trifluoromethyl)pyrimidine], which EC50 is on record?
A: < 100000 nM

Q: `COc1ccc(Cn2cc(-c3cc(-n4cccn4)nc(S(C)(=O)=O)n3)ccc2=O)cc1OC` [Compound 139, 1-(3,4-dimethoxybenzyl)-5-(2-(methylsulfonyl)-6-(1H-pyrazol-1-yl)pyrimidin-4-yl)pyridin-2 (1H)-one] was tested. Which EC50 did it give?
A: 1000 to 10000 nM

Q: For `COCCS(=O)(=O)c1nc(-c2ccc(=O)n(Cc3ccc(OC)c(OC)c3)c2)cc(C(F)(F)F)n1` [Compound 143], which EC50 is on record?
A: 1 to 1000 nM

Q: Which EC50 does the source give for `C#CCOc1cc(Cn2cc(-c3cc(C)nc(S(=O)(=O)CCC(OCc4ccccc4F)c4ccccc4)n3)cc(F)c2=O)ccc1OC` (stereo not shown) [Compound 332, 3-fluoro-5-(2-((3-((2-fluorobenzyl)oxy)-3-phenylpropyl)sulfonyl)-6-methylpyrimidin-4-yl)-1-(4-methoxy-3-(prop-2-yn-1-yloxy)benzyl)pyridin-2 (1H)-one] here?
A: 1 to 1000 nM

Q: `CS(=O)(=O)c1nc(-c2cccc(Oc3ccccc3)c2)cc(C(F)(F)F)n1` [Compound 73, 2-(methylsulfonyl)-4-(3-phenoxyphenyl)-6-(trifluoromethyl)pyrimidine] was tested. Which EC50 did it give?
A: 1000 to 10000 nM

Q: How did the EC50 turn out when `COc1cc(Cl)c(Cn2cc(-c3cc(C(F)(F)F)nc(S(=O)(=O)CCCC(=O)N4CCOCC4)n3)ccc2=O)cc1OC` [Compound 157, 1-(2-chloro-4,5-dimethoxybenzyl)-5-(2-((4-morpholino-4-oxobutyl)sulfonyl)-6-(trifluoromethyl)pyrimidin-4-yl)pyridin-2 (1H)-one] was run?
A: 1 to 1000 nM

Q: Which EC50 does the source give for `CS(=O)(=O)c1nc(-c2cccs2)cc(-c2cccs2)n1` [Compound 37, 2-(methylsulfonyl)-4,6-di(thiophen-2-yl)pyrimidine] here?
A: 1000 to 10000 nM

Q: `COc1cc(Cn2cc(-c3cc(C)nc(S(=O)(=O)CCC(OCc4ccccc4F)c4ccccc4)n3)cc(F)c2=O)ccn1` (stereo not shown) [Compound 321, 3-fluoro-5-(2-(3-(2-fluorobenzyloxy)-3-phenylpropylsulfonyl)-6-methylpyrimidin-4-yl)-1-((2-methoxypyridin-4-yl)methyl)pyridin-2 (1H)-one] was tested. Which EC50 did it give?
A: 1 to 1000 nM

Q: Which EC50 does the source give for `CS(=O)(=O)c1nc(-c2cccs2)cc(-n2cccn2)n1` [Compound 36, 2-(methylsulfonyl)-4-(1H-pyrazol-1-yl)-6-(thiophen-2-yl)pyrimidine] here?
A: 1000 to 10000 nM

Q: How did the EC50 turn out when `CCOc1cccc(Cn2cc(-c3cc(C)nc(S(=O)(=O)CCC(OCc4ccc(F)cc4F)c4ccccc4)n3)cc(F)c2=O)c1` (stereo not shown) [Compound 311, 5-(2-((3-((2,4-difluorobenzyl)oxy)-3-phenylpropyl)sulfonyl)-6-methylpyrimidin-4-yl)-1-(3-ethoxybenzyl)-3-fluoropyridin-2 (1H)-one] was run?
A: 1 to 1000 nM

Q: `COc1ccc(Cn2cc(-c3cc(C(F)(F)F)nc(S(=O)(=O)CCCC(=O)N(C)C)n3)ccc2=O)cc1OC` [Compound 151, 4-((4-(1-(3,4-dimethoxybenzyl)-6-oxo-1,6-dihydropyridin-3-yl)-6-(trifluoromethyl)pyrimidin-2-yl)sulfonyl)-N,N-dimethylbutanamide] was tested. Which EC50 did it give?
A: 1 to 1000 nM

Q: How did the EC50 turn out when `Cc1cc(-c2cc(F)c(=O)n(Cc3ccc4ocnc4c3)c2)nc(S(=O)(=O)CCC(OCc2ccccc2F)c2ccccc2)n1` (stereo not shown) [Compound 329, 1-(benzo[d]oxazol-5-ylmethyl)-3-fluoro-5-(2-((3-((2-fluorobenzyl)oxy)-3-phenylpropyl)sulfonyl)-6-methylpyrimidin-4-yl)pyridin-2 (1H)-one] was run?
A: 1 to 1000 nM

Q: With `COc1ccc(Cn2cc(-c3cc(C(F)(F)F)nc(S(C)(=O)=O)n3)ccc2=O)cc1` [Compound 110, 1-(4-Methoxybenzyl)-5-(2-(methylsulfonyl)-6-(trifluoromethyl)pyrimidin-4-yl)pyridin-2 (1H)-one] as the molecule, how does the EC50 read?
A: 1 to 1000 nM

Q: `COc1ccc(Cn2cc(-c3cc(C(F)(F)F)nc([S+](C)[O-])n3)ccc2=O)cc1OC` (stereo not shown) [Compound 128, 1-(3,4-dimethoxybenzyl)-5-(2-(methylsulfinyl)-6-(trifluoromethyl)pyrimidin-4-yl)pyridin-2 (1H)-one] was tested. Which EC50 did it give?
A: 1 to 1000 nM

Q: Which EC50 does the source give for `COc1cccc(Cn2cc(-c3cc(C(F)(F)F)nc(S(C)(=O)=O)n3)ccc2=O)c1` [Compound 109, 1-(3-methoxybenzyl)-5-(2-(methylsulfonyl)-6-(trifluoromethyl)pyrimidin-4-yl)pyridin-2 (1H)-one] here?
A: 1 to 1000 nM

Q: For `CS(=O)(=O)c1nc(-c2ccc(=O)n(Cc3cccc(Br)c3)c2)cc(C(F)(F)F)n1` [Compound 107, 1-(3-bromobenzyl)-5-(2-(methylsulfonyl)-6-(trifluoromethyl)pyrimidin-4-yl)pyridin-2 (1H)-one], which EC50 is on record?
A: 1 to 1000 nM

Q: With `Cc1cc(-c2cc(F)c(=O)n(CC3CCOCC3)c2)nc([S+]([O-])CCC(OCc2ccc(F)cc2F)c2ccccc2)n1` (stereo not shown) [Compound 313, 5-(2-(3-(2,4-difluorobenzyloxy)-3-phenylpropylsulfinyl)-6-methylpyrimidin-4-yl)-3-fluoro-1-((tetrahydro-2H-pyran-4-yl)methyl)pyridin-2 (1H)-one] as the molecule, how does the EC50 read?
A: 1000 to 10000 nM

Q: Which EC50 does the source give for `COc1ccc(Cn2cc(-c3cc(C(F)F)nc([S+](C)[O-])n3)ccc2=O)cc1F` (stereo not shown) [Compound 168, 5-(6-(difluoromethyl)-2-(methylsulfinyl)pyrimidin-4-yl)-1-(3-fluoro-4-methoxybenzyl)pyridin-2 (1H)-one] here?
A: 1 to 1000 nM

Q: With `CS(=O)(=O)c1nc(-c2ccc(=O)[nH]c2)cc(C(F)(F)F)n1` [Compound 99, 5-(2-(methylsulfonyl)-6-(trifluoromethyl)pyrimidin-4-yl)pyridin-2 (1H)-one] as the molecule, how does the EC50 read?
A: < 100000 nM
